Results as given in PubChem BioAssay AID296 (DTP/NCI, 2004).
Inconclusive results are not listed.

Tested on: MX-1 breast xenograft, nude mice, tumor weight T/C
Assay: NCI In Vivo Anticancer Drug Screen. Data for tumor model Human Mammary Carcinoma MX-1 Xenograft (intrarenal inoculation) in NU/NU Swiss (nude) mice
Details: endpoint: mean tumor weight change, higher = larger tumour
Outline: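 Antitumour effect measured in vivo against vehicle controls, expressed as T/C.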

[1] = dose: 200.0 mg/kg/injection, schedule: Q04DX003 (sc), vehicle: water
[2] = dose: 400.0 mg/kg/injection, schedule: Q04DX003 (sc), vehicle: water
[3] = dose: 150.0 mg/kg/injection, schedule: Q04DX003 (ip), vehicle: saline with Tween-80
[4] = dose: 600.0 mg/kg/injection, schedule: Q04DX003 (sc), vehicle: saline with Tween-80
[5] = dose: 1200.0 mg/kg/injection, schedule: Q04DX003 (sc), vehicle: saline with Tween-80
[6] = dose: 25.0 mg/kg/injection, schedule: Q01DX010 (sc), vehicle: saline with Tween-80

In the case of `NC(=O)c1csc(C2OC(CO)C(O)C2O)n1` (centres undefined), the T/C [1] is reported as 90 % of control, the T/C [2] is reported as 96 % of control and the T/C (dose: 800.0 mg/kg/injection, schedule: Q04DX003 (sc), vehicle: water) is reported as 118 % of control.

In the case of `O=C(O)/C=C/C(=O)Nc1ccc(Cl)c(Cl)c1`, the T/C (dose: 50.0 mg/kg/injection, schedule: Q04DX003 (sc), vehicle: Klucel (hydroxypropylcellulose) (HPC)) is reported as 111 % of control, the T/C (dose: 100.0 mg/kg/injection, schedule: Q04DX003 (sc), vehicle: Klucel (hydroxypropylcellulose) (HPC)) is reported as 91 % of control and the T/C (dose: 400.0 mg/kg/injection, schedule: Q04DX003 (sc), vehicle: Klucel (hydroxypropylcellulose) (HPC)) is reported as 120 % of control.

In the case of `Cc1c(N)nc(C(CC(N)=O)NCC(N)C(N)=O)nc1C(=O)NC(C(=O)NC(C)C(O)C(C)C(=O)NC(C(=O)NCCc1nc(-c2nc(C(=O)NCCCNC(C)c3ccccc3)cs2)cs1)C(C)O)C(OC1OC(CO)C(O)C(O)C1OC1OC(CO)C(O)C(OC(N)=O)C1O)c1cnc[nH]1` (centres undefined), the T/C (dose: 2.0 mg/kg/injection, schedule: Q01DX010 (sc), vehicle: saline) is reported as 114 % of control, the T/C (dose: 8.0 mg/kg/injection, schedule: Q01DX010 (sc), vehicle: saline) is reported as 92 % of control and the T/C (dose: 16.0 mg/kg/injection, schedule: Q01DX010 (sc), vehicle: saline) is reported as 89 % of control.

For `O=S1(=O)CS(=O)(=O)OCCO1`, the T/C (dose: 37.5 mg/kg/injection, schedule: Q04DX003 (sc), vehicle: Klucel (hydroxypropylcellulose) (HPC)) was 25 % of control, the T/C (dose: 75.0 mg/kg/injection, schedule: Q04DX003 (sc), vehicle: Klucel (hydroxypropylcellulose) (HPC)) was 42 % of control and the T/C (dose: 150.0 mg/kg/injection, schedule: Q04DX003 (sc), vehicle: Klucel (hydroxypropylcellulose) (HPC)) was 7 % of control.

In the case of `O=C(O)C1CC(c2ccccc2)=NN1c1ccccc1` (centres undefined), the T/C [1] is reported as 72 % of control and the T/C [2] is reported as 72 % of control.

For `NS(=O)(=O)OCCCCCCCOS(N)(=O)=O`, the T/C [3] was -97 % of control.

With `NC(=S)N/N=C\c1ncccc1OCc1cccc(N)c1` the T/C [4] was 75 % of control and the T/C [5] was 152 % of control.

`O=C(O)C(CSC(c1ccccc1)(c1ccccc1)c1ccccc1)N=Cc1cccs1` (centres undefined) was tested, and the T/C (dose: 800.0 mg/kg/injection, schedule: Q04DX003 (sc), vehicle: suspension in saline) was 67 % of control.

In the case of `Cc1cc(Br)c2nsnc2c1[N+](=O)[O-]`, the T/C [3] is reported as 104 % of control, the T/C (dose: 300.0 mg/kg/injection, schedule: Q04DX003 (ip), vehicle: saline with Tween-80) is reported as 74 % of control and the T/C (dose: 600.0 mg/kg/injection, schedule: Q04DX003 (ip), vehicle: saline with Tween-80) is reported as 97 % of control. The T/C (dose: 1200.0 mg/kg/injection, schedule: Q04DX003 (ip), vehicle: saline with Tween-80) was 159 % of control.

In the case of `COc1cccc(C2NC(=O)c3c(n[nH]c3N)S2)c1O` (centres undefined), the T/C (dose: 150.0 mg/kg/injection, schedule: Q04DX003 (sc), vehicle: saline with Tween-80) is reported as 50 % of control, the T/C (dose: 300.0 mg/kg/injection, schedule: Q04DX003 (sc), vehicle: saline with Tween-80) is reported as 62 % of control and the T/C [4] is reported as 77 % of control. The T/C [5] was 117 % of control.

With `CC1(C)COCN1COC1CCCCC1` the T/C (dose: 100.0 mg/kg/injection, schedule: Q04DX003 (sc), vehicle: saline) was 24 % of control, the T/C (dose: 200.0 mg/kg/injection, schedule: Q04DX003 (sc), vehicle: saline) was 32 % of control and the T/C (dose: 400.0 mg/kg/injection, schedule: Q04DX003 (sc), vehicle: saline) was 78 % of control. For the same compound, the T/C (dose: 800.0 mg/kg/injection, schedule: Q04DX003 (sc), vehicle: saline) was 56 % of control.

`CC1(C)CC1(Br)Br` was tested, and the T/C [6] was 71 % of control, the T/C (dose: 100.0 mg/kg/injection, schedule: Q01DX010 (sc), vehicle: saline with Tween-80) was 118 % of control and the T/C (dose: 200.0 mg/kg/injection, schedule: Q01DX010 (sc), vehicle: saline with Tween-80) was 153 % of control.

`CCC1CN2C(=N1)c1ccccc1-c1cc(Cl)ccc12` (centres undefined) was tested, and the T/C (dose: 12.5 mg/kg/injection, schedule: Q01DX010 (sc), vehicle: saline with Tween-80) was 108 % of control, the T/C [6] was 118 % of control and the T/C (dose: 50.0 mg/kg/injection, schedule: Q01DX010 (sc), vehicle: saline with Tween-80) was 108 % of control.

In the case of `NC(Cc1ccc(N(CCCl)CCCl)cc1)C(=O)O` (centres undefined), the T/C (dose: 10.0 mg/kg/injection, schedule: Q04DX003 (sc), vehicle: Klucel (hydroxypropylcellulose) (HPC)) is reported as -99 % of control, the T/C (dose: 20.0 mg/kg/injection, schedule: Q04DX003 (sc), vehicle: Klucel (hydroxypropylcellulose) (HPC)) is reported as -100 % of control and the T/C (dose: 40.0 mg/kg/injection, schedule: Q04DX003 (sc), vehicle: Klucel (hydroxypropylcellulose) (HPC)) is reported as -99 % of control.
